According to article PMC10821229, “Synthesis and Antiviral Activity of Novel β-D-N4-Hydroxycytidine Ester Prodrugs as Potential Compounds for the Treatment of SARS-CoV-2 and Other Human Coronaviruses” (Pharmaceuticals, 2023):

Assays:
[1] = test system: HIV; conditions: compared with emtricitabine (FTC); cited from earlier work
[2] = test system: SARS-CoV-2 XBB.1.16; assay: Inhibition of virus-induced cytopathic effect (MTT), SARS-CoV-2 XBB.1.16; type: cell-based; conditions: Severe acute respiratory syndrome coronavirus 2
[3] = test system: HCoV-229E; assay: Inhibition of virus-induced cytopathic effect (MTT), HCoV-229E; type: cell-based; conditions: Human coronavirus 229E, CPE inhibition, 100 TCID50, 72–96 h
[4] = test system: SARS-CoV-2 BQ.1.1.45; assay: Inhibition of virus-induced cytopathic effect (MTT), SARS-CoV-2 BQ.1.1.45; type: cell-based; conditions: Severe acute respiratory syndrome coronavirus 2
[5] = Cytotoxicity (CC50) in Vero E6 and huh-7 cells; type: cell-based; conditions: African green monkey (Vero E6) and human (huh-7), Vero E6 cells and huh-7 cells
[6] = test system: SARS-CoV-2 EG.5.1.1; assay: Inhibition of virus-induced cytopathic effect (MTT), SARS-CoV-2 EG.5.1.1; type: cell-based; conditions: Severe acute respiratory syndrome coronavirus 2

Structure (SMILES)	times higher anti-HIV activity than the parent drug [1]	IC50 [2]	IC50 [3]	IC50 [4]	CC50 [5]	IC50 [6]
CCCCCCCCCCCCCC(=O)OC[C@@H]1O[C@H](n2cc(F)c(N)nc2=O)CS1	10–24 times	–	–	–	–	–
CC(C)C(=O)OC[C@H]1O[C@@H](n2ccc(NO)nc2=O)[C@H](O)[C@@H]1O [EIDD-2801, Molnupiravir, reference compound]	–	1510 nM	3.44 µM	310 nM	≥ 50 µM	530 nM
Cc1ccc(CC(=O)OC[C@H]2O[C@@H](n3ccc(NO)nc3=O)[C@H](O)[C@@H]2O)cc1 [SN_14, 5′-O-(4-Methylphenyl)acetyl-N4-hydroxycytidine]	–	2160 nM	10.5 µM	700 nM	≥ 50 µM	1090 nM
COc1cccc(CC(=O)OC[C@H]2O[C@@H](n3ccc(NO)nc3=O)[C@H](O)[C@@H]2O)c1 [SN_15, 5′-O-(3-Methoxyphenyl)acetyl-N4-hydroxycytidine]	–	2090 nM	11.1 µM	740 nM	≥ 50 µM	530 nM
COc1ccc(CC(=O)OC[C@H]2O[C@@H](n3ccc(NO)nc3=O)[C@H](O)[C@@H]2O)cc1 [SN_16, 5′-O-(4-Methoxyphenyl)acetyl-N4-hydroxycytidine]	–	2020 nM	7.29 µM	710 nM	≥ 50 µM	560 nM
O=C(Cc1ccccc1F)OC[C@H]1O[C@@H](n2ccc(NO)nc2=O)[C@H](O)[C@@H]1O [SN_17, 5′-O-(2-Fluorophenyl)acetyl-N4-hydroxycytidine]	–	1690 nM	7.86 µM	650 nM	≥ 50 µM	980 nM
O=C(Cc1ccc(F)cc1)OC[C@H]1O[C@@H](n2ccc(NO)nc2=O)[C@H](O)[C@@H]1O [SN_18, 5′-O-(4-Fluorophenyl)acetyl-N4-hydroxycytidine]	–	2760 nM	21 µM	1210 nM	≥ 50 µM	1780 nM
O=C(Cc1ccccc1Cl)OC[C@H]1O[C@@H](n2ccc(NO)nc2=O)[C@H](O)[C@@H]1O [SN_19, 5′-O-(2-Chlorophenyl)acetyl-N4-hydroxycytidine]	–	5710 nM	23.8 µM	2340 nM	≥ 50 µM	2160 nM
O=C(OC[C@H]1O[C@@H](n2ccc(NO)nc2=O)[C@H](O)[C@@H]1O)C1(c2ccccc2)CC1 [SN_20, 5′-O-(1-Phenylcyclopropanoyl-1-carbonyl)-N4-hydroxycytidine]	–	> 100000 nM	> 100 µM	≥ 50000 nM	≥ 50 µM	> 100000 nM
O=C(COc1ccccc1)OC[C@H]1O[C@@H](n2ccc(NO)nc2=O)[C@H](O)[C@@H]1O [SN_21, 5′-O-Phenoxyacetyl-N4-hydroxycytidine]	–	1280 nM	5.13 µM	860 nM	≥ 50 µM	830 nM
Cc1cccc(OCC(=O)OC[C@H]2O[C@@H](n3ccc(NO)nc3=O)[C@H](O)[C@@H]2O)c1 [SN_22, 5′-O-(3-Methylphenoxy)acetyl-N4-hydroxycytidine]	–	250 nM	1.62 µM	210 nM	≥ 50 µM	200 nM
COc1cccc(CCC(=O)OC[C@H]2O[C@@H](n3ccc(NO)nc3=O)[C@H](O)[C@@H]2O)c1 [SN_23, 5′-O-3-(3-Methoxyphenyl)propanoyl-N4-hydroxycytidine]	–	1020 nM	1.68 µM	260 nM	≥ 50 µM	300 nM
